Data from patent publication US7973047B2, “Beta-Secretase modulators and methods of use” (Amgen Inc., priority 2010, dated 2011).

The compounds below were run on Aβ40 in conditioned medium of cells stably expressing Amyloid Precursor Protein (APP) (assay: BACE cell-based assay: Aβ40 in conditioned medium by sandwich ELISA). Settings: cell based assay data of Table 4; unit inferred; read-out: Cell Assay.
Experimental: The cell-based assay measures inhibition or reduction of Aβ40 in conditioned medium of test compound treated cells expressing amyloid precursor protein.
Cells stably expressing Amyloid Precursor Protein (APP) were plated at a density of 40K cells/well in 96 well plates (Costar). The cells were cultivated for 24 hours at 37° C. and 5% CO2 in DMEM supplemented with 10% FBS. The test compounds were then added to cells in 10-point dose response concentrations with the starting concentration being either 100 μM or 10 μM. The compounds were diluted from stock solutions in DMSO and the final DMSO concentration of the test compounds on cells was 0.1%. After 24 h of incubation with the test compounds the supernatant conditioned media was collected and the Aβ40 levels were determined using a sandwich ELISA. The ICso of the compound was calculated from the percent of control or percent inhibition of Aβ40 as a function of the concentration of the test compound.
The sandwich ELISA to detect Aβ40 was performed in 96 well microtiter plates, which were pre-treated with goat anti-rabbit IgG (Pierce). The capture and detecting antibody pair that were used to detect Aβ40 from cell supernatants were affinity purified pAb40 (Biosource) and biotinylated 6E10 (Signet Labs Inc.), respectively. The optimal concentration for the pAb40 antibody was 3 μg/ml in Superblock/TBS (Pierce) that was supplemented with 0.05% Tween 20 (Sigma).
Cellular supernatants were incubated with the capture antibody for 3 h at 4° C., followed by 3 wash steps in TBS-tween (0.05%). The detecting antibody incubation was for 2 h at 4° C., again followed by the wash steps as described previously. The final readout of the ELISA is Time-Resolved Fluorescence (counts per minute) using Delfia reagents Streptavidin-Europium and Enhancement solutions (Perkin Elmer) and the Victor 2 multilabel counter (Perkin Elmer).

Row | IC50 | Compound
1 | 569 nM | CC(=O)N[C@@H](Cc1ccc(F)cc1)[C@H](O)CN[C@@H]1CC2(CCCC2)C(=O)c2ccc(CC(C)(C)C)cc21 [compound 564, N-((1S,2R)-3-(((4′R)-6′-(2,2-dimethylpropyl)-1′-oxo-3′,4′-dihydro-1′H-spiro[cyclopentane-1,2′-naphthalen]-4′-yl)amino)-1-((4-fluorophenyl)methyl)-2-hydroxypropyl)acetamide]
2 | 1.41 nM | CNc1nc(CC(C)(C)C)cc2c1OC1(CCC1)C[C@@H]2NC[C@@H](O)[C@H](Cc1cccc(F)c1)NC(C)=O [compound 590]
3 | 6.32 nM | CC(=O)N[C@@H](Cc1cc(C)nc(Cl)c1)[C@H](O)CN[C@H]1CC2(CCC2)Oc2ncc(CC(C)(C)C)cc21 [compound 644, N-((1S,2R)-1-((2-chloro-6-methyl-4-pyridinyl)methyl)-3-(((4′S)-6′-(2,2-dimethylpropyl)-3′,4′-dihydrospiro[cyclobutane-1,2′-pyrano[2,3-b]pyridin]-4′-yl)amino)-2-hydroxypropyl)acetamide]
4 | 51.8 nM | CC(=O)N[C@@H](Cc1ccc(Cl)cc1)[C@H](O)CN[C@H]1C[C@]2(CCOC2)Oc2ncc(CC(C)(C)C)cc21 [compound 670, N-((1S,2R)-1-((4-chlorophenyl)methyl)-3-(((3R,4′S)-6′-(2,2-dimethylpropyl)-3′,4,4′,5-tetrahydrospiro[furan-3,2′-pyrano[2,3-b]pyridin]-4′-yl)amino)-2-hydroxypropyl)acetamide]
5 | 14 nM | CC(=O)N[C@@H](Cc1ccc(F)cc1)[C@H](O)CN[C@H]1CC2(CCC2)Oc2c1cc(CC(C)(C)C)nc2NC1CC1 [compound 586]
6 | 162 nM | COc1ccc(C[C@H](NC(C)=O)[C@@H](O)CN[C@H]2CC3(CCC3)Oc3ncc(CC(C)(C)C)cc32)cc1F [compound 666]
7 | 4.43 nM | CC(=O)N[C@@H](Cc1cccc(F)c1)[C@H](O)CN[C@H]1CC2(CCC2)Oc2c1cc(CC(C)(C)C)nc2NCCN [compound 606]
8 | 3.04 nM | CC(=O)N[C@@H](Cc1ccncc1)[C@H](O)CN[C@H]1CC2(CCC2)Oc2ncc(CC(C)(C)C)cc21 [compound 635, N-((1S,2R)-3-(((4′S)-6′-(2,2-dimethylpropyl)-3′,4′-dihydrospiro[cyclobutane-1,2′-pyrano[2,3-b]pyridin]-4′-yl)amino)-2-hydroxy-1-(4-pyridinylmethyl)propyl)acetamide]
9 | ≥ 10000 nM | CC(=O)N[C@@H](Cc1ccc(Cl)cc1)[C@H](O)CN[C@H]1C[C@@]2(CC[C@@H]2C)Oc2ncc(CC(C)(C)C)cc21 [compound 626]
10 | 72.8 nM | N-((1S,2R)-3-(((4R)-6-(2,2-dimethylpropyl)-2,2-dimethyl-1,2,3,4-tetrahydro-4-quinolinyl)amino)-2-hydroxy-1-(phenylmethyl)propyl)acetamide N-((1S,2R)-3-(((4S)-6-(2,2-dimethylpropyl)-2,2-dimethyl-1,2,3,4-tetrahydro-4-quinolinyl)amino)-2-hydroxy-1-(phenymethyl)propyl)acetamide [compound 689]
11 | 124 nM | CC(=O)N[C@@H](Cc1cccc(C#N)c1)[C@H](O)CN[C@H]1CC(C)(C)Cc2ncc(C)cc21 [compound 543]
12 | 2.03 nM | CC(=O)N[C@@H](Cc1cccc(C#N)c1)[C@H](O)CN[C@H]1CC2(CCC2)Oc2ncc(CC(C)(C)C)cc21 [compound 540, N-((1S,2R)-1-((3-cyanophenyl)methyl)-3-(((4′S)-6′-(2,2-dimethylpropyl)-3′,4′-dihydrospiro[cyclobutane-1,2′-pyrano[2,3-b]pyridin]-4′-yl)amino)-2-hydroxypropyl)acetamide]
13 | 17.1 nM | COCCC(=O)N[C@@H](Cc1ccc(F)cc1)[C@H](O)CN[C@H]1CC2(CCC2)Oc2ncc(CC(C)(C)C)cc21 [compound 633]
14 | 43.4 nM | CC[C@H](C)Cc1cnc2c(c1)[C@@H](NC[C@@H](O)[C@H](Cc1ccc(F)cc1)NC(C)=O)CC1(CCC1)O2 [compound 695]
15 | 385 nM | CC(=O)N[C@@H](Cc1ccc(Cl)cc1)[C@H](O)CN[C@H]1CC2(CCC2)Oc2nc(F)c(CC(C)(C)C)cc21 [compound 667]
16 | 23.1 nM | CC(=O)N[C@@H](Cc1ccc(Cl)cc1)[C@H](O)CN[C@H]1CC2(CCC2)Oc2ncc([C@H](F)C(C)(C)C)cc21 [compound 680]
17 | 18.1 nM | CC(=O)N[C@@H](Cc1ccc(F)c(C(F)(F)F)c1)[C@H](O)CN[C@H]1CC2(CCC2)Oc2ncc(CC(C)(C)C)cc21 [compound 676]
18 | 2090 nM | CC(=O)N[C@@H](Cc1ccc(F)cc1)[C@H](O)CN[C@H]1CC2(CCC2)Oc2c1cc(CC(C)(C)C)cc2N1CCOCC1 [compound 536]
19 | 20.2 nM | N-((1S,2R)-3-(((3S,4′S)-6′-(2,2-dimethylpropyl)-3′,4,4′,5-tetrahydrospiro[furan-3,2′-pyrano[2,3-b]pyridin]-4′-yl)amino)-1-((4-fluorophenyl)methyl)-2-hydroxypropyl)acetamide N-((1S,2R)-3-(((3R,4′S)-6′-(2,2-dimethylpropyl)-3′,4,4,5-tetrahydrospiro[furan-3,2′-pyrano[2,3-b]pyridin]-4′-yl)amino)-1-((4-fluorophenyl)methyl)-2-hydroxypropyl)acetamide [compound 658]
20 | 66.7 nM | CC(=O)N[C@@H](Cc1cccc(F)c1)[C@H](O)CN[C@@H]1CC2(CCC2)Oc2c1cc(CC(C)(C)C)nc2OC(C)C [compound 609]
21 | 1.67 nM | CC(=O)N[C@@H](Cc1cccc(F)c1)[C@H](O)CN[C@H]1CC(C)(C)Oc2ncc(CC(C)(C)C)cc21 [compound 546]
22 | 30.6 nM | CC(=O)N[C@@H](Cc1ccccc1)[C@H](O)CN[C@H]1CC(C)(C)Nc2ccc(CC(C)(C)C)cc21 [compound 692]
23 | 2.32 nM | CC(=O)N[C@@H](Cc1cncs1)[C@H](O)CN[C@H]1CC2(CCC2)Oc2ncc(CC(C)(C)C)cc21 [compound 638, N-((1S,2R)-3-(((4′S)-6′-(2,2-dimethylpropyl)-3′,4′-dihydrospiro[cyclobutane-1,2′-pyrano[2,3-b]pyridin]-4′-yl)amino)-2-hydroxy-1-(1,3-thiazol-5-ylmethyl)propyl)acetamide]

Same assay, conditions: cell based assay data, Table 4; unit inferred; read-out: Cell Assay

Row | IC50 | Compound
24 | 68.8 nM | CC(=O)N[C@@H](CC1CC1)[C@H](O)CN[C@H]1C[C@]2(C[C@H](C)C2)Oc2ncc(CC(C)(C)C)cc21 [compound 725, N-((1S,2R)-1-(cyclopropylmethyl)-3-(((1s,3R,4′S)-6′-(2,2-dimethylpropyl)-3-methyl-3′,4′-dihydrospiro[cyclobutane-1,2′-pyrano[2,3-b]pyridin]-4′-yl)amino)-2-hydroxypropyl)acetamide]
25 | 9.72 nM | CC(=O)N[C@@H](Cc1ccnc(OC(F)F)c1)[C@H](O)CN[C@H]1CC2(CCC2)Oc2ncc(CC(C)(C)C)cc21 [compound 726, N-((1S,2R)-1-((2-((difluoromethyl)oxy)-4-pyridinyl)methyl)-3-(((4′S)-6′-(2,2-dimethylpropyl)-3′,4′-dihydrospiro[cyclobutane-1,2′-pyrano[2,3-b]pyridin]-4′-yl)amino)-2-hydroxypropyl)acetamide]
26 | 33.8 nM | CC(=O)N[C@@H](Cc1cccc(F)c1F)[C@H](O)CN[C@H]1C[C@]2(C[C@H](C)C2)Oc2ncc(CC(C)(C)C)cc21 [compound 769, N-((1S,2R)-1-((2,3-difluorophenyl)methyl)-3-(((1s,3R,4′S)-6′-(2,2-dimethylpropyl)-3-methyl-3′,4′-dihydrospiro[cyclobutane-1,2′-pyrano[2,3-b]pyridin]-4′-yl)amino)-2-hydroxypropyl)acetamide]
27 | 167 nM | CC(=O)N[C@@H](Cc1cncc(F)c1)[C@@H](O)CN[C@H]1CC2(CCC2)Oc2ncc(CC(C)(C)C)cc21 [compound 831, N-((1S,2S)-3-(((4′S)-6′-(2,2-dimethylpropyl)-3′,4′-dihydrospiro[cyclobutane-1,2′-pyrano[2,3-b]pyridin]-4′-yl)amino)-1-((5-fluoro-3-pyridinyl)methyl)-2-hydroxypropyl)acetamide]
28 | 1800 nM | CC(=O)N[C@@H](Cc1ccc(F)cc1)[C@H](O)CN[C@H]1CC2(CCC2)Oc2ncc(Cc3ccccc3)cc21 [compound 818]
29 | 12.8 nM | CC(=O)N[C@@H](Cc1cccc(C(N)=O)c1)[C@H](O)CN[C@H]1CC2(CCC2)Oc2ncc(CC(C)C)cc21 [compound 848]
30 | 6.93 nM | CC(=O)N[C@@H](Cc1c(F)cccc1F)[C@H](O)CN[C@H]1CC2(CCC2)Oc2ncc(CC(C)(C)C)cc21 [compound 826]
31 | 4.34 nM | CC(=O)N[C@@H](Cc1cccc(F)c1F)[C@H](O)CN[C@H]1CC2(CCC2)Oc2ncc(CC(C)(C)C)cc21 [compound 825]
32 | 298 nM | C/C=C/C[C@H](NC(C)=O)[C@H](O)CN[C@H]1CC2(CCC2)Oc2ncc(CC(C)(C)C)cc21 [compound 739, N-((1S,3E)-1-((1R)-2-(((4′S)-6′-(2,2-dimethylpropyl)-3′,4′-dihydrospiro[cyclobutane-1,2′-pyrano[2,3-b]pyridin]-4′-yl)amino)-1-hydroxyethyl)-3-penten-1-yl)acetamide]
33 | 25.2 nM | CC(=O)N[C@@H](Cc1cccc(F)c1)[C@H](O)CN[C@H]1CC2(CCC2)Oc2nc(F)c(CC(C)C)cc21 [compound 855]
